Measurements as given in patent publication US20040210047A1, “Methallyl sucroses and their epoxy derivatives” (priority 2003, published 2004).
Entries after “also recorded” stand apart in the source; their conditions may differ.

Key:
[1] = system: Salmonella Typhimurium TA-98; test: Modified Maron-Ames test, strain TA-98; settings: for cytotoxicity: strain TA-98, with microsomal enzyme S-9 activation, no effect on the background lawn; for mutagenicity (revertant colonies): strain TA-98, with or without metabolic activation S-9
Procedure: (§1) Serial dilutions (100 fold) were made with DMSO to obtain samples with dilution factors of 10^−3, 10^−5, and 10^−7. The assays were performed according to the modified methods of Maron and Ames (Maron D. R. and Ames, B. N. Mutation Research, 1980, Vol. 113, 173-215) using two strains of Salmonella Typhimurium TA-98 and TA-100, with and without metabolic activation of the substrate. The male rat microsomal homogenate S-9 was used to effect metabolic activation of the substrate. TA-98 and TA-100 were cultured in Oxoid Nutrient Broth No.2 at 37° C. for 16 hours using a gyratory shaker (200-250 rpm).
(§2) Compounds were assayed after the bacteria tested positive for the viability-related criteria above. Two mL top agar was placed in sterile culture tubes and kept at ˜40° C. in a water bath. Samples (100 μL) were placed in each tube (3 tubes per sample) and 100 μL of either strain TA-98 or TA-100 was added. When required, the S-9 homogenate (500 μL) was then added. The tubes were mixed and poured into minimal glucose agar plates. The plates were left at room temperature until the top agar solidified. Then, they were inverted and incubated at 37° C. for 48 hours. After incubation, revertant colonies were counted. Samples that presented greater than 2 times the number of revertant colonies were considered mutagenic. (See FIGS. 9(a) through (f)).

[2] = system: Salmonella Typhimurium TA-100; test: Modified Maron-Ames test, strain TA-100; settings: for dilution at which a mutagenic response was observed: dilution in DMSO
Procedure: as §1, with “Serial dilutions (100 fold) were made with DMSO to obtain samples with dilution factors of 10^−3, 10^−5, and 10^−7.” left out
as §2

Row | Compound | cytotoxicity [1] | mutagenicity (revertant colonies) [1] | cytotoxicity and mutagenicity, overall conclusion ([1]; tester strain TA-98, all concentrations) | dilution at which a mutagenic response was observed ([2]; strain TA-100, with S-9 activation) | dilution at which a mutagenic response was observed ([2]; strain TA-100, without S-9 activation) | cytotoxicity ([2]; Maron-Ames tests, about 10 mg/mL concentration in DMSO, strain not stated) | cytotoxicity ([2]; dilution factors of 10^−1) | mutagenic response ([2]; strain TA-100, dilution factor 10^−1 in DMSO, with or without S-9 activation) | revertant colonies ([2]; strain TA-100, dilution factor 10^−2)
1 | CC(C)(c1ccc(OCC2CO2)cc1)c1ccc(OCC2CO2)cc1 (stereo not shown) [DGEBA, diglycidyl ether of bisphenol-A] | slightly cytotoxic | no apparent mutagenicity | neither cytotoxic nor mutagenic | greater than 10^−3 | greater than 10^−5 | – | – | – | –
2 | epoxyallyl sucrose [EAS] | slightly cytotoxic | – | – | – | – | – | – | – | –
3 | epoxycrotyl sucrose [ECS] | slightly cytotoxic | – | – | – | – | – | – | – | –
4 | epoxymethallyl sucrose [EMS] | slightly cytotoxic | no apparent mutagenicity; also recorded: no mutagenic response | – | – | – | borderline cytotoxicity | borderline cytotoxic | mutagenic response was observed | had not doubled
